In US20020137779A1, “Use of L-2-oxothiazolidine-4-carboxylic acid for the treatment of type 2 diabetes” (Advanced Biochemicals Inc., priority 2001, published 2002):

Assay: ED50 by linear regression method
Type: in vivo
Details: calculated by linear regression method; read-out: ED50 (50% of maximum effective dose)
Text: ED50 is defined as 50% of maximum effective dose calculated by linear regression method. The term “treat” refers to the ability of the compounds to either relieve, alleviate, or slow the progression of the patient's disease.

## O=C1NC(C(=O)O)CS1 [OTC, L-2-oxothiazolidine-4-carboxylic acid]
  ED50: 15 mg/kg
